Laboratory results: patent US10143691B2, “Pathogenic control of apoptosis” (CSIR, priority 2014, dated 2018)
“Also recorded” adds a separate entry of the source. Like-named read-outs stand apart in the source and are kept apart here.

Assays:
[1] = test system: HIV-1; assay: HIV-1 infection/replication in Ghost(3) reporter cells (LTR-driven GFP expression); format: cell-based; conditions: Ghost(3) cells exposed to HIV-1 and treated
Protocol: Viral stocks were titred using TZMBI cells and used to infect Ghost(3) cells using an MOI=1.0, or IPSO-derived macrophages using an MOI=0.5. Where indicated, Ghost(3) cells were treated with 10 μM of either Raltegravir, Maraviroc, Tenofovir (AIDS Research and Reference Reagent Program, Division of AIDS, NIAID, NIH) or Nutlin3a (Sigma) for up to 48 hours.
Viral stocks were titred using TZM-BI cells and used to infect Ghost(3) cells using an MOI=1.0, or IPSO-derived macrophages using an MOI=0.5. Where indicated, cells were treated with 10 μM of either Raltegravir, Maraviroc, Tenofovir (AIDS Research and Reference Reagent Program, Division of AIDS, NIAID, NIH) or Doxorubicin (Sigma-Aldrich), or Nutlin3a (Sigma-Aldrich), or MAP2K1 inhibitor (U-0126) or ERK2 inhibitor (FR180204) for up to 48 hours.

[2] = test system: hnRNP-K; assay: Immunofluorescence of hnRNP-K cellular location in Ghost(3) cells; format: cell-based
Protocol: (§1) For each experiment, Ghost(3) cells or IPSC-derived primary macrophages were infected or treated with 500 nM Doxorubicin on coverslips, fixed for 10 mins in fresh 4% paraformaldehyde at room temperature, then washed 3 times in PBS and permeabilised for 10 mins in ice-cold methanol at […]. Coverslips were washed once in PBS and incubated in blocking buffer (5% goat serum, 0.3% TritonX100 in PBS) for 60 mins at room temperature. Cells were incubated in primary antibody solution (1% BSA, 0.3% Triton X100 in PBS) overnight at 4° C. Double strand breaks were detected using rabbit polyclonal anti-phosphohistone H2A.X Ser139 (Cell Signaling). Activated ATM was detected using rabbit monoclonal anti-phosphoATM Ser1981 (Cell Signaling). The ability of p53 to regulate apoptosis was detected using rabbit polyclonal antiphosphop53 Ser46 (Cell Signaling). Viral p24 was detected using mouse monoclonal anti-HIV1p24 (AIDS Research and Reference Reagent Program, Division of AIDS, NIAID, NIH). HuR was detected using mouse monoclonal anti-HuR 3A2 (Santa Cruz Biotechnology). hnRNPK was detected using goat polyclonal anti-hnRNPK P20 (Santa Cruz Biotechnology). Coverslips were washed 3 times (5 mins each on an orbital shaker) with wash buffer (0.05% Tween20 in PBS), followed by incubation with secondary antibodies conjugated to either Atto550 or Atto565 or Atto647 for 60 mins at room temperature. Coverslips were washed 3 times (5 mins each on an orbital shaker) with wash buffer (0.05% Tween20 in PBS). Coverslips were incubated in equilibration buffer (0.4% glucose, 2×SCC) for 5 mins and counter stained with 1 mg/ml DAPI (4′,6-diamidino-2-phenylindole; Life Technologies). Coverslips were mounted in glox buffer (3.7 mg/ml glucose oxidase, 1 U catalase) and imaged.
For each experiment, cells were infected or treated with drugs on coverslips, fixed for 10 mins in fresh 4% paraformaldehyde at room temperature, then washed 3 times in PBS and permeabilised for 10 mins in ice-cold methanol at −20° C. Coverslips were washed once in PBS and incubated in blocking buffer (5% goat serum, 0.3% Triton-X100 in PBS) for 60 mins at room temperature. Cells were incubated in primary antibody solution (1% BSA, 0.3% Triton X-100 in PBS) overnight at 4° C. Double strand breaks were detected using rabbit polyclonal anti-phospho-histone H2A.X Ser139 (Cell Signaling). Activated ATM was detected using rabbit monoclonal anti-phospho-ATM Ser1981 (Cell Signaling). The ability of p53 to regulate apoptosis was detected using rabbit polyclonal anti-phospho-p53 Ser46 (Cell Signaling). Viral p24 was detected using mouse monoclonal anti-HIV-1-p24 (AIDS Research and Reference Reagent Program, Division of AIDS, NIAID, NIH). HuR was detected using mouse monoclonal anti-HuR 3A2 (Santa Cruz Biotechnology). hnRNP-K was detected using goat polyclonal anti-hnRNP-K P-20 (Santa Cruz Biotechnology). Coverslips were washed 3 times (5 mins each on an orbital shaker) with wash buffer (0.05% Tween-20 in PBS), followed by incubation with secondary antibodies conjugated to either Atto-550 or Atto-565 or Atto-647 for 60 mins at room temperature. Coverslips were washed 3 times (5 mins each on an orbital shaker) with wash buffer (0.05% Tween-20 in PBS). Coverslips were incubated in equilibration buffer (0.4% glucose, 2×SCC) for 5 mins and counter stained with 1 mg/ml DAPI (4′,6-diamidino-2-phenylindole; Life Technologies). Coverslips were mounted in glox buffer (3.7 mg/ml glucose oxidase, 1 U catalase) and imaged.

[3] = test system: Ghost(3) cells; format: cell-based; conditions: for apoptosis of HIV-infected cells: HIV-infected Ghost(3) cells exposed to inhibitor (10 μM), 30 hours post-infection
Protocol: Apoptosis was measured in Ghost(3) cells 30 hours post-infection or drug treatment using the NucView™ 488 Caspase3 Assay Kit (Biotium) in a 96 well format. Data was analysed in MATLAB using a probabilistic region method to measure cell attachment and expressed as percentage cell survival. […] An average of 3000 cells per condition were analysed with the exception of cells treated with Doxorubicin followed by HIV-infection (FIG. 3), cells transfected with lincRNAp21 overexpression constructs followed by Doxorubicin treatment, and cells transfected with full-length lincRNAp21, infected with HIV1 and treated with Nutlin3 (FIG. 25). These latter conditions ( ? ) yielded too few attached cells (<20) at 30 hours for similar analysis.
Apoptosis was measured in Ghost(3) cells 30 hours post-infection or drug treatment using the NucView™ 488 Caspase-3 Assay Kit (Biotium) in a 96 well format. Data was analysed in MATLAB using a probabilistic region method to measure cell attachment and expressed as percentage cell survival. […] An average of 3000 cells per condition were analysed with the exception of cells treated with Doxorubicin followed by HIV-infection (FIG. 27), cells transfected with lincRNA-p21 overexpression constructs followed by Doxorubicin treatment (FIG. 36), and cells transfected with full-length lincRNA-p21, infected with HIV-1 and treated with Nutlin3 (FIG. 45). These latter conditions ( ? ) yielded too few attached cells (<20) at 30 hours for similar analysis.

[4] = test system: HuR; assay: Immunofluorescence of HuR cellular location in Ghost(3) cells; format: cell-based; conditions: HIV-infected Ghost(3) cells with inhibitor added (10 μM)
Protocol: as §1, with “Coverslips were washed 3 times (5 mins each on an orbital shaker) with wash buffer (0.05% Tween20 in PBS), followed by incubation with secondary antibodies conjugated to either Atto550 or Atto565 or Atto647 for 60 mins at room temperature. Coverslips were washed 3 times (5 mins each on an orbital shaker) with wash buffer (0.05% Tween20 in PBS). Coverslips were incubated in equilibration buffer (0.4% glucose, 2×SCC) for 5 mins and counter stained with 1 mg/ml DAPI (4′,6-diamidino-2-phenylindole; Life Technologies). Coverslips were mounted in glox buffer (3.7 mg/ml glucose oxidase, 1 U catalase) and imaged.” left out
(§2) For each experiment, cells were infected or treated with drugs on coverslips, fixed for 10 mins in fresh 4% paraformaldehyde at room temperature, then washed 3 times in PBS and permeabilised for 10 mins in ice-cold methanol at −20° C. […] Double strand breaks were detected using rabbit polyclonal anti-phospho-histone H2A.X Ser139 (Cell Signaling). Activated ATM was detected using rabbit monoclonal anti-phospho-ATM Ser1981 (Cell Signaling). The ability of p53 to regulate apoptosis was detected using rabbit polyclonal anti-phospho-p53 Ser46 (Cell Signaling). Viral p24 was detected using mouse monoclonal anti-HIV-1-p24 (AIDS Research and Reference Reagent Program, Division of AIDS, NIAID, NIH). HuR was detected using mouse monoclonal anti-HuR 3A2 (Santa Cruz Biotechnology). hnRNP-K was detected using goat polyclonal anti-hnRNP-K P-20 (Santa Cruz Biotechnology). […]

[5] = test system: H2A.XpSer139; assay: Immunofluorescence staining of double strand breaks (H2A.XpSer139); format: cell-based; conditions: HIV-1 infected cells treated with 10 μM drug
Protocol: as §1
as §2, with “C. Coverslips were washed once in PBS and incubated in blocking buffer (5% goat serum, 0.3% Triton-X100 in PBS) for 60 mins at room temperature.” for “C.”

[6] = test system: lincRNAp21; assay: lincRNA-p21 expression by RNA FISH spot counts and quantitative RT-PCR; format: cell-based, human; conditions: HIV-infected Ghost(3) cells, qRT-PCR relative to HPRT
Protocol: RNA FISH on Ghost(3) cells was performed according to Raj, 2008 and on primary macrophages according to Schaffer, 2013. For both methods 48 20mer probes (Biosearch) targeted to human lincRNAp21 were synthesised baring a […] C6dT. The amino group was subsequently conjugated to the following NHSester dyes: ATTO565, ATTO647N (ATTOTEC) or Alexa Fluor 647 (Invitrogen). Briefly, oligonucleotide probes were ethanol precipitated and resuspended in 0.1 M sodium tetraborate (Sigma). Approximately 0.3 mg of the NHSester dye (ATTOTEC) was dissolved in dimethyl sulphoxide (Sigma). The dye solution was added to the probe solution and incubated overnight in the dark at 37° C. Following the conjugation reaction, the probes were ethanol precipitated overnight, and resuspended in 0.1 M triethyl ammonium (Sigma). Conjugated probes were separated and purified to enrich for dyeconjugated probes by reverse phase HPLC on a C18 column. […]
For each experiment, Ghost(3) cells or IPSO-derived primary macrophages were infected or treated with 500 nM Doxorubicin over time and total RNA was extracted from cells using TRIzol® (Life Technologies), treated with RQ1 RNase-free DNase (Promega) and reverse transcribed using SuperScript III Reverse Transcriptase (Life Technologies). Quantitative RTPCR was performed using Sso Fast EvaGreen™ supermix (BioRad) on a BioRad CFX96 real-time PCR detection system. […]

[7] = Ghost(3) cells exposed to HIV-1 and concurrently treated with 10 μM antiretroviral
[8] = HIV-infected Ghost(3) cells exposed to MAP2K1 or ERK2 inhibitor (10 μM), 30 hours post-infection
[9] = cells transfected 24 hours with full-length or truncated lincRNA-p21, then Nutlin3a, absence of HIV-1
[10] = full-length lincRNA-p21 transfected 24 hours, HIV-1 infected 24 hours, then Nutlin3a
[11] = truncated lincRNA-p21 transfected 24 hours, HIV-1 infected 24 hours, then Nutlin3a

Row | Compound | HIV-1 infection / replication (GFP expression) [1] | cellular location of hnRNP-K [2, 7] | apoptosis of HIV-infected cells [3] | cellular location of HuR [4] | cellular location of hnRNP-K [2, 8] | other results
1 | Maraviroc | remained uninfected | no nuclear hnRNPK |  |  |  | 
2 | Nc1n[nH]c2nnc(-c3c(-c4ccccc4)nn4ccccc34)cc12 [ERK2 inhibitor, 5-(2-phenylpyrazolo[1,5-a]pyridin-3-yl)-1H-pyrazolo[3,4-c]pyridazin-3-amine] |  |  | infected cells underwent apoptosis | Cytoplasmic HuR is not observed; also recorded: HIV-1 able to sequester HuR in the nucleus | strong nuclear localisation of hnRNP-K | 
3 | N#CC(=C(N)Sc1ccccc1N)C(C#N)=C(N)Sc1ccccc1N [MAP2K1 inhibitor, 1,4-diamino-2,3-dicyano-1,4-bis(2-aminophenylthio)butadiene] |  |  | infected cells underwent apoptosis | cytoplasmic (and nuclear) HuR | strong nuclear localisation of hnRNP-K | 
4 | COc1ccc(C2=NC(c3ccc(Cl)cc3)C(c3ccc(Cl)cc3)N2C(=O)N2CCNC(=O)C2)c(OC(C)C)c1 (single isomer, unassigned; (-)) [Nutlin3a, (−)-4-(4,5-Bis(4-chlorophenyl)-2-(2-isopropoxy-4-methoxyphenyl)-4,5-dihydro-1H-imidazole-1-carbonyl)piperazin-2-one] |  |  |  |  |  | apoptosis [3, 9]: no apoptosis; apoptosis [3, 10]: undergo apoptosis within 24 hours of Nutlin3a addition; also recorded: underwent apoptosis; apoptosis [3, 11]: do not undergo apoptosis; also recorded: did not undergo apoptosis; cellular location of hnRNP-K ([2]; Ghost(3) cells, Nutlin3a (10 μM) added 24 hours post HIV-1 infection): nuclear localisation of hnRNP-K at 48 hours in GFP-positive cells only; also recorded: nuclear localisation of hnRNPK in HIV-infected cells only; also recorded: nuclear localisation of hnRNP-K in HIV-infected cells only; also recorded: nuclear localisation of hnRNPK at 48 hours in GFP-positive cells only; cellular location of hnRNP-K ([2]; Ghost(3) cells, drug only, no HIV infection): cytoplasmic hnRNP-K; also recorded: no nuclear hnRNPK; also recorded: no nuclear hnRNP-K; also recorded: cytoplasmic hnRNPK; cellular location of hnRNP-K ([2]; Nutlin3a added prior to HIV1 infection): no nuclear hnRNPK was observed; cellular location of hnRNP-K [2, 9]: cytoplasmic hnRNPK; also recorded: cytoplasmic hnRNP-K; cellular location of hnRNP-K [2, 10]: showed nuclear hnRNP-K; also recorded: show nuclear hnRNPK; cellular location of hnRNP-K [2, 11]: show nuclear hnRNP-K; also recorded: also showed nuclear hnRNPK; also recorded: also showed nuclear hnRNP-K; also recorded: show nuclear hnRNPK
5 | C[C@H](Cn1cnc2c(N)ncnc21)OCP(=O)(O)O [Tenofovir] |  | no nuclear hnRNPK |  |  |  | 
6 | Cc1nnc(C(=O)NC(C)(C)c2nc(C(=O)NCc3ccc(F)cc3)c(O)c(=O)n2C)o1 [Raltegravir] | no GFP expression | no nuclear hnRNPK over time; also recorded: cytoplasmic hnRNPK |  |  |  | H2A.X staining in HIV-infected cells [5]: abrogate this effect; lincRNA-p21 expression [6]: no change in lincRNAp21 expression; also recorded: does not affect lincRNAp21 expression
